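All cell lines were grown in 96-well plates and treated with compound for 48 hours. GI50 = concentration required for 50% inhibition of growth.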 Calls of active or inactive are those of the source. Rule as the data show it: active = GI50 up to about 1.1 µM and inactive = higher.
Key:
Test in all cases: NCI anticancer screen, dose series, 48 h
786-0 = system: 786-0
A498 = system: A498
A549 = system: A549
ACHN = system: ACHN
BT-549 = system: BT-549
CAKI-1 = system: CAKI-1
CCRF-CEM = system: CCRF-CEM
COLO 205 = system: COLO 205
DLD-1 = system: DLD-1
DMS-114 = system: DMS-114
DU-145 = system: DU-145
EKVX = system: EKVX
HCC 2998 = system: HCC 2998
HCT-116 = system: HCT-116
HCT-15 = system: HCT-15
HL-60 = system: HL-60
HOP-18 = system: HOP-18
HOP-62 = system: HOP-62
HOP-92 = system: HOP-92
HT-29 = system: HT-29
Hs-578T = system: Hs-578T
IGROV-1 = system: IGROV-1
K562 = system: K562
KM-20L2 = system: KM-20L2
KM12 = system: KM12
LOX IMVI = system: LOX IMVI
LXFL 529 = system: LXFL 529
M14 = system: M14
M19-MEL = system: M19-MEL
MCF7 = system: MCF7
MDA-MB-231 = system: MDA-MB-231
MDA-N = system: MDA-N
MOLT-4 = system: MOLT-4
Malme-3M = system: Malme-3M
NCI-H226 = system: NCI-H226
NCI-H23 = system: NCI-H23
NCI-H460 = system: NCI-H460
NCI-H522 = system: NCI-H522
OVCAR-3 = system: OVCAR-3
OVCAR-4 = system: OVCAR-4
OVCAR-5 = system: OVCAR-5
OVCAR-8 = system: OVCAR-8
PC-3 = system: PC-3
RPMI-8226 = system: RPMI-8226
RXF 393 = system: RXF 393
SF-268 = system: SF-268
SF-295 = system: SF-295
SF-539 = system: SF-539
SK-MEL-28 = system: SK-MEL-28
SK-MEL-2 = system: SK-MEL-2
SK-MEL-5 = system: SK-MEL-5
SK-OV-3 = system: SK-OV-3
SN12C = system: SN12C
SNB-19 = system: SNB-19
SNB-75 = system: SNB-75
SNB-78 = system: SNB-78
SR = system: SR
SW-620 = system: SW-620
T47D = system: T47D
TK-10 = system: TK-10
U-251 = system: U-251
UACC-257 = system: UACC-257
UACC-62 = system: UACC-62
UO-31 = system: UO-31

Measured: GI50

C=C[C@]1(C)CC(O)C2C(=C)C(=O)OC2[C@H]1C(=C)C=O (some centres undefined)
2.06 µM: HCT-15
inactive: 786-0 1.91 µM | A498 4.42 µM | A549 18.4 µM | ACHN 2.36 µM | BT-549 3.27 µM | CAKI-1 4.35 µM | COLO 205 7.23 µM | DLD-1 2.08 µM | DMS-114 5.73 µM | DU-145 12.1 µM | EKVX 15 µM | HCC 2998 14.1 µM | HCT-116 1.64 µM | HOP-18 5.41 µM | HOP-62 15.5 µM | HOP-92 2.61 µM | HT-29 2.33 µM | Hs-578T 14.4 µM | IGROV-1 8.87 µM | K562 2.52 µM | KM-20L2 5.47 µM | KM12 2.17 µM | LXFL 529 1.64 µM | M14 2.08 µM | M19-MEL 2.52 µM | MDA-MB-231 3.1 µM | MDA-N 3.92 µM | MOLT-4 2 µM | Malme-3M 1.86 µM | NCI-H226 6.59 µM | NCI-H23 2.68 µM | NCI-H460 14.5 µM | OVCAR-3 2.67 µM | OVCAR-4 7.93 µM | OVCAR-5 10.8 µM | OVCAR-8 2.16 µM | PC-3 2.87 µM | RXF 393 2.07 µM | SF-268 3.95 µM | SF-295 10.6 µM | SF-539 3.29 µM | SK-MEL-28 1.3 µM | SK-MEL-2 3.5 µM | SK-MEL-5 2.33 µM | SK-OV-3 25.8 µM | SN12C 2.37 µM | SNB-19 18.2 µM | SNB-75 18.6 µM | SNB-78 3.56 µM | SR 1.91 µM | SW-620 1.44 µM | T47D 3.15 µM | TK-10 3.94 µM | U-251 9.04 µM | UACC-257 1.57 µM | UACC-62 1.79 µM | UO-31 6.37 µM
active: CCRF-CEM 0.925 µM | HL-60 0.893 µM | LOX IMVI 1.01 µM | MCF7 1.09 µM | NCI-H522 0.966 µM | RPMI-8226 0.859 µM
